Source: patent US20030065030A1, “Autonomic controlling agents and health drinks and foods” (priority 2001, published 2003)

Key:
[1] = test system: sympathetic nerve renal branches; experiment: efferent neural activity of the sympathetic nerve renal branches after intravenous carnosine; type: in vivo, rat; conditions: 1,000 ng intravenous
Method: (§1) According to the method of Niijima (Neurobiology 3:299-307, 1995), the effect of carnosine on the autonomic nerve activity was investigated. Wistar male rats, weighing about 300 g, that had been kept in an environment of room temperature (24° C.) and free access to the feed were fasted (with free access to water) 12 hours before the start of the experiment. Rats were subjected to abdominal section under urethane anesthesia (1 g/kg body weight, intraperitoneal administration), neurofilaments were isolated from central cut ends of a sympathetic nerve branch or a vagal nerve branch, and the efferent neural activity was recorded via an AC amplifier. The neural activity was observed using an oscilloscope and was recorded into magnetic tape. At the same time, the time course of the neural activity was recorded with a pen-type recorder via a rate meter with a reset time set at 5 seconds.
(§2) Carnosine (100 ng or 1,000 ng dissolved in 0.1 ml physiological saline) was intravenously administered. As the control, physiological saline (0.1 ml) was alone administered intravenously.
(§3) The effect of carnosine administration was calculated as the neural activity count (%) after carnosine administration relative to neural activity count (mean value of 10 activity counts during 5 minutes) before administration set at 100. Five rats were used for each experiment. Data were tested with ANOVA (p<0.05) and were expressed as mean +/− standard error.

[2] = test system: vagal nerve celiac branches; experiment: efferent neural activity of the vagal nerve celiac branches after intravenous carnosine; type: in vivo, rat; conditions: 100 ng intravenous
Method: as §1, §2, §3
In order to study the effect on the neural activity of the vagal nerve, the efferent neural activity of the vagal nerve celiac branches was recorded.

[3] = test system: 2DG hyperglycemic rats; experiment: anti-hyperglycemia in the 2DG hyperglycemic rats; type: in vivo, rat
From the text: Since blood glucose levels are expected to be reduced when the activity of the autonomic nervous system is controlled by carnosine at a low dose, the effect of carnosine on anti-hyperglycemia in the 2DG hyperglycemic rats was investigated according to the method of Chun et al. (Brain Research 809:165-174, 1998). Wistar male rats (initial weight, about 250 g) were used that had been acclimated for at least 10 days to an environment in a room illuminated with an incandescent light of 80 lux on the average for 12 hours at room temperature (24 +/− 1° C.) with free access to the feed.
Three days before the experiment, rats under anesthesia with pentobarbital (35 mg/kg body weight, intraperitoneal administration) received the insertion of a cardiac catheter comprising a silastic tubing (Dow Corning, Midland, Mich.) and a polyethylene tubing (Clay Adams, Parsippany, N.J.) into the right atrium and a polyethylene tubing into the right lateral cerebral ventricle (LCV). On the day of the experiment, carnosine dissolved in physiological saline was administered to the rats intracranially (0.01 ml) or intraperitoneally (0.1 ml) with the simultaneous administration into the rat LCV of 80 μmol 2-deoxy-D-glucose (2DG, 0.01 ml). The control rats received physiological saline instead of carnosine and an artificial cerebrospinal fluid in stead of 2DG, each at the same amount.
Sixty minutes after the administration of 2DG into the LCV, 300 μl of blood was taken via the cardiac catheter and the plasma level of glucose was determined. The glucose concentrations in the plasma were measured using the Fuji-Dri-chem system (Fuji Film Tokyo) according to the glucose oxidase method. Changes in plasma concentrations of glucose were expressed as a ratio (%) relative to the control value at 90 minutes after 2DG administration set at 100. Four or five rats were used in the experiments. Data were tested with ANOVA (p<0.05) and were expressed as mean +/− standard error.

[4] = test system: DOCA-salt hypertensive rats; experiment: anti-hypertensive effect in DOCA-salt hypertensive rats (systolic blood pressure); type: in vivo, rat
Method: Sprague-Dawley male rats (6-week old) were used. The animals were anesthetized by the intraperitoneal administration of pentobarbital at 40 mg/kg body weight, and the right flank was dissected to remove the right kidney. After the surgical operation and a one week recovery period, the animals were divided into the pseudosurgery (sham) group and the deoxycorticosterone acetate (DOCA) salt group. Each group was further divided into the normal diet group, the 0.001% carnosine-containing diet group, and the 0.0001% carnosine-containing group.
The rats of the DOCA-salt group received the subcutaneous injection of DOCA suspended in corn oil at 15 mg/kg body weight twice per week, and tap water supplemented with 1% sodium chloride was given as the drinking water. The sham group received neither DOCA nor sodium chloride. The systolic blood pressure was monitored once per week for five weeks using the tail cuff and the pneumatic pulse transducer (BP-98A, Softron). The experiment employed 9 rats in the DOCA group and 6 rats in the sham group. Data were tested with ANOVA (p<0.05) and were expressed as mean +/− standard error.

[5] = test system: carnosine-degrading enzyme; experiment: carnosine-degrading enzyme activity in the plasma of rats; type: in vitro ADME
[6] = molecular target: T1, carnosine-degrading enzyme (Homo sapiens, UniProt Q96KN2); conditions: cited from earlier work
T1 construct: host or cells: human blood
T1 sequence (Q96KN2 27-507 limits assumed): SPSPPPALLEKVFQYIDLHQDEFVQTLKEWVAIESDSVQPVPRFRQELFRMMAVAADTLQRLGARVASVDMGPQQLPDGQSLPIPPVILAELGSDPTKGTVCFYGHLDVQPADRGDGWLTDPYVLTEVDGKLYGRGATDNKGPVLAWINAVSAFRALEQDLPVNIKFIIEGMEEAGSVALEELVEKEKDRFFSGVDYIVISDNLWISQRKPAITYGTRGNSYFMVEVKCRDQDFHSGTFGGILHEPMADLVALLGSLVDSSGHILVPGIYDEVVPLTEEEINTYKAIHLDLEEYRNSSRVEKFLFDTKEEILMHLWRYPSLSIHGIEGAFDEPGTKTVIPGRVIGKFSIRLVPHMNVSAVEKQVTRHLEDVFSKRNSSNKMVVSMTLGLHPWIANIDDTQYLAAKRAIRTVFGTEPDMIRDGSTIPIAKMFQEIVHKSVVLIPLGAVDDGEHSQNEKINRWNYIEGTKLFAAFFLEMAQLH

[7] = 30 minutes after administration
[8] = 60 minutes after administration
[9] = 90 minutes after administration

NCCC(=O)N[C@@H](Cc1cnc[nH]1)C(=O)O [carnosine, β-alanyl-L-histidine]
suppression rate of efferent neural activity of the sympathetic nerve renal branches [1, 7]: 29.7% | suppression rate of efferent neural activity of the sympathetic nerve renal branches [1, 8]: 32.8% | suppression rate of efferent neural activity of the sympathetic nerve renal branches [1, 9]: 28.0% | promotion rate of efferent neural activity of the vagal nerve celiac branches [2, 7]: 15.4% | promotion rate of efferent neural activity of the vagal nerve celiac branches [2, 8]: 28.6% | promotion rate of efferent neural activity of the vagal nerve celiac branches [2, 9]: 48.7% | effect on hyperglycemia ([3]; 10 ng intracranially administered): suppressed hyperglycemia | suppression rate of hyperglycemia (plasma glucose) ([3]; 10 ng intraperitoneal): 16.0% | suppression rate of hyperglycemia (plasma glucose) ([3]; 100 ng intraperitoneal): 31.5% | suppression rate of hyperglycemia (plasma glucose) ([3]; 1,000 ng intraperitoneal): 26.8% | suppression rate of hyperglycemia (plasma glucose) ([3]; 10,000 ng intraperitoneal): 27.6% | suppression rate of hyperglycemia (plasma glucose) ([3]; 100,000 ng intraperitoneal): 21.9% | hypoglycemic action ([3]; high dose of 1,000,000 ng (3.3 mg/kg body weight) intraperitoneal): did not show any hypoglycemic action | suppression rate of increase in systolic blood pressure ([4]; 0.0001% carnosine-containing diet, week five): 17.8% | suppression rate of increase in systolic blood pressure ([4]; 0.0001% carnosine-containing diet, week four): 22.1% | suppression rate of increase in systolic blood pressure ([4]; 0.0001% carnosine-containing diet, week one): 9.6% | suppression rate of increase in systolic blood pressure ([4]; 0.0001% carnosine-containing diet, week three): 15.0% | suppression rate of increase in systolic blood pressure ([4]; 0.0001% carnosine-containing diet, week two): 10.2% | suppression rate of increase in systolic blood pressure ([4]; 0.001% carnosine-containing diet, week five): 25.5% | suppression rate of increase in systolic blood pressure ([4]; 0.001% carnosine-containing diet, week four): 21.5% | suppression rate of increase in systolic blood pressure ([4]; 0.001% carnosine-containing diet, week one): 6.2% | suppression rate of increase in systolic blood pressure ([4]; 0.001% carnosine-containing diet, week three): 19.6% | suppression rate of increase in systolic blood pressure ([4]; 0.001% carnosine-containing diet, week two): 12.4% | carnosine-degrading enzyme activity [5]: 0.01 to 0.04 µmol/h/mL | activity of a carnosine-degrading enzyme in the blood [6]: 2 to 7 µmol/h/mL
